# Measured values taken from patent US8562986B2, “Engineered anti-alpha V-integrin hybrid antibodies” (Merck Patent GmbH, priority 2007, dated 2013).
# “Also recorded” adds a separate entry of the source. Where two headings read alike, the source gives them in different places.
# Tests used:
# HUVEC = test: cells; details: for additive effect with Cilengitide: chemotherapeutic combined with Cilengitide; for additive effect with DI-17E6: chemotherapeutic combined with DI-17E6; for additive effect with Mab 17E6: chemotherapeutic combined with Mab 17E6
# Description: The experimental design gives answer to the question whether blockade of the one lowered the IC50 of the other for blockade endothelial cell growth in the presence of tumor growth factors VEGFA and FGF2.
# Plates were coated with 100 μl VN at 1 μg/ml in PBS per 96-well at 4° C. overnight. […] When added in combination the two test substances were mixed at the starting concentrations and the mixture was serially diluted as for the single agents alone. In some assays the chemotherapeutics were serially diluted in the presence of a constant amount of the alpha V blockers at the IC50 or IC70 concentrations. Plates were incubated for 72 hours, then relative cell number was determined by the addition of 20 ul/well Alamar Blue (Resazurin).
# Points were run in duplicate or in triplicate. Reagent blanks, containing media plus Alamar Blue without cells, were run on each plate.
# Tests were routinely run using HUVEC in media containing 10 ng/ml FGF-2 or HDMVEC in media containing 10 ng/ml VEGF.
# CAKI-1 renal carcinoma = CAKI-1 renal carcinoma xenograft, monotherapy; format: in vivo, SCID or nude mice; details: i.p. once per week
# [1] = T-cell epitope mapping score; design: species or system human; details: T-cell epitope scoring
# [2] = test system: bFGF induced angiogenesis; test: Matrigel plug model in monkeys; format: in vivo, Cynomologus monkeys; details: 6 days
# Description: Matrigel plugs containing bFGF were implanted s.c. into the abdomen of healthy Cynomologus monkeys. The animals were injected once with EMD 525797 i.v. at either 10 mg/Kg or 30 mg/Kg. Evaluation of angiogenesis was carried out 6 days after by quantification of the hemoglobin content in the Matrigel plugs.
# ADCC and CDC = format: cell-based
# [3] = 4-weeks / repeat-dose toxicology study; format: in vivo, cynomolgus monkey
# [4] = First clinical study in healthy volunteers, anti-drug antibodies; format: in vivo, human
# Source text: This was meanwhile confirmed by a first clinical study carried out in the US in 2006/2007. […] In contrast to that, mouse 17E6 develops in animal models a strong immune response.
# αvβ3 integrin = αvβ3 integrin (Homo sapiens, UniProt P06756); test: Integrin binding ELISA
# Description: Assay to determine binding of DI17E6 antibody to alpha V integrin receptor subunit The ability of the DI17E6 antibody to bind alpha V integrin was assayed using an ELISA. Briefly, various amounts of antibody were added to wells containing alpha V integrin, wells were then washed, and the bound antibody was assayed according to standard procedures.
# M21-L tumors = test: SCID mouse-human skin chimera model; format: in vivo; details: 1 mg/dose i.p. 3 times per week, from one day after inoculation
# Source text: Human skin containing human M21 melanoma cells were grafted by implantation/transplantation onto SCID or nude mice. Experimental tumors grew in this tissue after intradermal inoculation of tumor cells and the initial angiogenic vasculature was derived from vessels in the human skin. In the next experiment, the use of M21-L cells that have no av-integrins means that only those integrins expressed on the endothelial cells within the grafted human skin were targeted.
# [5] = test system: VEGF-induced migration of human endothelial cells on vitronectin; details: read-out: EC50, block of VEGF-induced migration of human endothelial cells on vitronectin
# αv-integrins = test: Species specificity (immuno precipitation, western blotting); format: binding, human and monkey
# Description: The molecular basis for this unusual profile has been unequivocally established by epitope mapping, sequence comparison, and x-ray co-crystallography. The epitope recognized by DI-17E6 is confirmed as unique to human and monkey by immuno precipitation and western blotting analysis performed with several species.
# bacteria = test: Bacterial screening test for mutagenic potential; format: cell-based
# [6] = test system: human endothelial cell adhesion to vitronectin; test: Endothelial cell adhesion to vitronectin; format: cell-based; details: read-out: EC50, inhibition of human endothelial cell adhesion to vitronectin
# CAKI-1 xenograft tumors = test: CAKI-1 renal cell carcinoma xenograft, with Erbitux; format: in vivo, mice; details: 17.1 mg/kg loading then […] weekly i.p.
# Description: The renal cell carcinoma cell line CAKI-1 was grown in RPMI containing 10% FCS (heat-inactivated) plus 2 mM glutamine. 1 mM sodium pyruvate. 100 units/ml penicillin and 100 ug/ml streptomycin. Cells were passaged at confluence by washing once in cation-free PBS followed by a 3 minute incubation in trypsin (0.5 ug/ml)/EDTA (0.2 ug/ml) solution in PBS at 37° C. Cells were recovered in medium, centrifuged and taken up in medium and counted.
# The treatment started for all groups at day 0 of experiment (same day of cell injection).
# [7] = Serum levels and anti-antibody response in monkey Matrigel plug experiment; format: in vivo; details: monkeys, single i.v. injection, up to end of study
# Description: Serums were collected at three different points (from the legs): immediately before antibody injection, immediately (1-2 minutes) after antibody injection, and at the end of the study before animal sacrifice. […] To detect given serum dilution) were found at the two different time points in serum: immediately after antibody administration and at the end of the study.
# [8] = Single dose immunogenicity study in monkeys (sandwich ELISA); format: in vivo, monkey; details: 1 mg/Kg single i.v., 1, 3 and 6 weeks
# Description: In another study the pharmacy kinetic parameters of a single dose of DI-17E6 in monkeys was assessed and in addition, this study was planned to investigate the immunogenicity of DI-17E6. […] Length of the assay was 6 weeks. Serums were drawn pre-dose, and 1, 3, and 6 weeks after administration. Levels of monkey antibodies against DI-17E6 were analyzed. In this study, immunogenicity was directly addressed using a specific sandwich ELISA method designated for this type of studies (method not validated yet).
# [9] = test system: human melanoma cell lines m21, SKMEL-23, SKMEI, MeWo, WM-793; details: cisplatin, paclitaxel, vinblastin, vincristin, temoyolomide
# [10] = test system: platelet thrombus formation; test: Thrombus formation in perfusion chamber; format: cell-based; details: dose-dependent
# Description: To exclude possible side effects of the antibody on platelets, EMD 525797 was evaluated for inhibition of platelet aggregation in vitro with human platelet rich plasma/collagen. […] Aggregation and activation studies were carried out using Platelet Rich Plasma (PRP). Thrombus formation by perfusion chamber with exposed subendothelial matrix.
# NP18-b3 pancreatic tumor = test: Orthotopic pancreatic xenograft; format: in vivo, nude mice; details: EMD 525797 500 μg per animal or gemcitabine 50 mg/Kg, i.p. 3 times a week; 6 weeks
# Description: NP18-b3 pancreatic human cell line, which expresses αvβ3-integrin, was implanted orthotopically into the pancreas of immunosuppressed mice. The animals were randomized to and one week later treatment with drugs and vehicle started.
# Tumors were removed and cut into pieces of 10 mg each. These pieces were then sutured to the pancreas of healthy animals (one piece per animal). 4-6 weeks later, tumors were removed, cut into pieces again and stitched into new animals. Those new animals were then randomized and one week later treatment with drugs and vehicle was started. EMD 525797 was dosed i.p. at 500 μg per animal three times a week. Gemcitabine was administered as a suboptimal dose of 50 mg/Kg 3 times a week (suboptimal dose based on previous studies). In a fourth group, EMD 525797 was combined with suboptimal doses of gemcitabine based on previous experiments. Tumor growth measurement (weight of the removed tumors) was made 6 weeks after the tumor grafting.
# [11] = Homo sapiens, HUVEC, 72 h, 10 ng/ml FGF-2, 72 hours, single agent
# [12] = HUVEC, 10 ng/ml FGF-2, 72 hours, single agent
# Sequence of αvβ3 integrin (P06756 31-889 limits assumed): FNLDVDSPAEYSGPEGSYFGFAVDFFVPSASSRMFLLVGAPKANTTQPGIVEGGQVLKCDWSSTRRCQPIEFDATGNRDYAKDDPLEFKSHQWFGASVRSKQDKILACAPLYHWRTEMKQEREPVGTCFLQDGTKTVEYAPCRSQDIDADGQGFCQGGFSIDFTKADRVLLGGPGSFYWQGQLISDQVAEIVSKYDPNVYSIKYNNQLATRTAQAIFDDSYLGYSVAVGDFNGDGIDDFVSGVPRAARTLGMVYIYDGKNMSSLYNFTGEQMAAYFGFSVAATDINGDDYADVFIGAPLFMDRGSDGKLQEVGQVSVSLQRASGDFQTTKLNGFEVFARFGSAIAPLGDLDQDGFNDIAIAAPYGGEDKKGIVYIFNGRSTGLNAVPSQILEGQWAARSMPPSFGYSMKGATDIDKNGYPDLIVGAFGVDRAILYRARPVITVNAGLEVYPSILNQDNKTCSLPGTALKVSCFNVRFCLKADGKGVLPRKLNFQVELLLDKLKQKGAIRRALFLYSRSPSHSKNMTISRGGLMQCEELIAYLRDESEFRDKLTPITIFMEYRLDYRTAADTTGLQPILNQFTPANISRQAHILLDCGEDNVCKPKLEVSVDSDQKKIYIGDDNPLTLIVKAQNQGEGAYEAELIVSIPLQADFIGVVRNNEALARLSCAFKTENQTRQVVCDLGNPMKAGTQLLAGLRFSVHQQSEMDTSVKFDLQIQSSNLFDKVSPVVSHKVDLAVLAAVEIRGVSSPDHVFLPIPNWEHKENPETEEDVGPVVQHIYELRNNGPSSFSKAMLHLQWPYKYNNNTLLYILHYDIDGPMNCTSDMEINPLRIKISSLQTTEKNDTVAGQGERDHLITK
# Sequence of αvβ3 integrin (P06756 891-1048 partner limits assumed): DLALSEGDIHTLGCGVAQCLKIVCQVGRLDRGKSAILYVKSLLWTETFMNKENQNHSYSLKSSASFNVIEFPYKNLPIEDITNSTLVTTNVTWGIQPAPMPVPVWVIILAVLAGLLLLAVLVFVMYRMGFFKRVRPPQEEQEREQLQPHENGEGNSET
# Sequence of αvβ3 integrin (P05106 27-788 partner): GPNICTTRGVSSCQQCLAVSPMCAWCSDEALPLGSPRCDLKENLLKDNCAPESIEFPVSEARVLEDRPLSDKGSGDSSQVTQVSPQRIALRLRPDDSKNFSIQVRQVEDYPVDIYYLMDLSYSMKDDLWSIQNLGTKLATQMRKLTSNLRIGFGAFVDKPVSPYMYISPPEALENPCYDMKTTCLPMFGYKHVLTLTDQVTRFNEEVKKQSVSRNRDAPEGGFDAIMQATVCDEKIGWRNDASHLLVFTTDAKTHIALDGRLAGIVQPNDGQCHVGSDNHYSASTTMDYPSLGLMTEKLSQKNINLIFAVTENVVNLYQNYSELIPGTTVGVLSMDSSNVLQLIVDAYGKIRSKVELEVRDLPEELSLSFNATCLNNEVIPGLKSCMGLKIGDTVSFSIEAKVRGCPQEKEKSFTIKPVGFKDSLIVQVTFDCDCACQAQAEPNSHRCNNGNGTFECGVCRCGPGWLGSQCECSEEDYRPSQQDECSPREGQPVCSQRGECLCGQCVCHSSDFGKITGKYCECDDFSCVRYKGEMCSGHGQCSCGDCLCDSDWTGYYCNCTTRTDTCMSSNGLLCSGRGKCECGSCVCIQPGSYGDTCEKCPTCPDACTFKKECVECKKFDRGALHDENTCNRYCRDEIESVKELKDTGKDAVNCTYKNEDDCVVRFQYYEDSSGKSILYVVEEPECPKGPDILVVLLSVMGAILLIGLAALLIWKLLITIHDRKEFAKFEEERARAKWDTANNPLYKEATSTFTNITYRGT
compound,measurement,setting,value
COc1cc([C@@H]2c3cc4c(cc3[C@@H](O[C@@H]3O[C@@H]5CO[C@@H](C)O[C@H]5[C@H](O)[C@H]3O)[C@H]3COC(=O)[C@H]23)OCO4)cc(OC)c1O [Etoposide],IC50,HUVEC; [11],0.7 µM
same,additive effect with Cilengitide,HUVEC,yes
same,additive effect with DI-17E6,HUVEC,yes
same,additive effect with Mab 17E6,HUVEC,yes
"DI-17E6: engineered de-immunized anti-αv integrin antibody: 17E6 CDRs, h425 light chain frameworks, human IgG2 with modified IgG1 hinge, N297Q, F296A",tumor volume,CAKI-1 renal carcinoma; high dose (500 ug/ml),complete reduction of tumor volume
same,tumor volume/size,CAKI-1 renal carcinoma; low (1 ug/ml) to medium (100 ug/ml serum) doses,can reduce tumor volume/size
same,"Total score, heavy chain",[1]; heavy chain,85
same,"Total score, light chain",[1]; light chain,92
same,new blood vessel formation (hemoglobin content of plugs),[2]; 10 mg/Kg i.v. once,inactive
same,new blood vessel formation (hemoglobin content of plugs),[2]; 30 mg/Kg i.v. once,highly efficacious
same,ADCC and CDC,ADCC and CDC,neither antibody dependent cell cytotoxicity (ADCC) nor complement dependent cytotoxicity (CDC)
same,tolerability,"[3]; 10, 33 and 100 mg/kg once weekly for 4 weeks, intravenous infusion (1 h)",well tolerated
same,treatment-related effects in 4-weeks toxicology study,"[3]; clinical observations, body weight, ECG, clinical pathology, organ weight, histopathology",did not reveal any treatment-related effects
same,safety pharmacology alerts,[3]; repeat-dose-toxicity studies in cynomolgus monkey,No safety pharmacology alerts
same,anti-drug antibodies in volunteers,"[4]; group of 250 mg, 6 volunteers",one volunteer developed anti-drug antibodies
same,anti-drug antibodies in volunteers,[4]; higher dose groups (500 mg and more),no volunteer developed any immune response; also recorded: not detected
same,binding to αvβ3 integrin (in words),αvβ3 integrin,similar
same,binding to αvβ3 integrin (in words),αvβ3 integrin; listed as DI-17E6-g2h(NtoQ)(C60Y),retains binding affinity
same,IC50,HUVEC; [12],4 ng/mL
same,growth of M21-L tumors,M21-L tumors,inhibited growth
same,EC50,[5],~0.05 µM
same,species specificity,αv-integrins,human and monkey αv-integrins only
same,mutagenic potential,bacteria,not mutagenic
same,EC50,[6],~0.01 µM
same,"T/C at day 40, end of treatment",CAKI-1 xenograft tumors,25%
same,serum trough values,CAKI-1 xenograft tumors; mice,100 µg/mL
same,serum levels of antibody,[7],high serum levels at each time-point
same,monkey antibodies against the antibody,[8],no monkey antibodies against DI-17E6 could be detected
same,effect on the chemotherapeutic agent,[9],not more than additive affects
same,platelet thrombus formation in the perfusion chamber,[10],blocks
C[C@]12CC[C@@H]3c4ccc(OC(=O)N(CCCl)CCCl)cc4CC[C@H]3[C@@H]1CC[C@@H]2O [Estramustine],IC50,"HUVEC; Homo sapiens, HUVEC, 72 h",182 µM
same,additive effect with Cilengitide,HUVEC,no
same,additive effect with DI-17E6,HUVEC,no
same,additive effect with Mab 17E6,HUVEC,no
CC[C@@]1(O)C(=O)OCc2c1cc1n(c2=O)Cc2cc3ccccc3nc2-1 [Camptothecin],IC50,HUVEC; [11],0.08 µM
same,additive effect with Cilengitide,HUVEC,yes
same,additive effect with DI-17E6,HUVEC,yes
same,additive effect with Mab 17E6,HUVEC,yes
CC[C@]1(O)C[C@H]2CN(CCc3c([nH]c4ccccc34)[C@@](C(=O)OC)(c3cc4c(cc3OC)N(C=O)[C@H]3[C@@](O)(C(=O)OC)[C@H](OC(C)=O)[C@]5(CC)C=CCN6CC[C@]43[C@@H]65)C2)C1 [Vincrisitin],IC50,HUVEC; [11],0.0007 µM
same,additive effect with Cilengitide,HUVEC,yes
same,additive effect with DI-17E6,HUVEC,yes
same,additive effect with Mab 17E6,HUVEC,yes
"CC(=O)O[C@H]1C(=O)[C@@]2(C)[C@H]([C@H](OC(=O)c3ccccc3)[C@]3(O)C[C@H](OC(=O)[C@H](O)[C@@H](NC(=O)c4ccccc4)c4ccccc4)C(C)=C1C3(C)C)[C@]1(OC(C)=O)CO[C@@H]1C[C@@H]2O [Taxol, Paclitaxel]",IC50,HUVEC; [12],0.3 ng/mL
same,IC50,HUVEC; [11],0.27 ng/mL
same,IC50,"HUVEC; Homo sapiens, HUVEC, read-out: IC50 in combination with 17E6, HUVEC, combination with 17E6",0.18 ng/mL
same,IC50,"HUVEC; Homo sapiens, HUVEC, read-out: IC50 in combination with Cilengitide, HUVEC, combination with Cilengitide",0.13 ng/mL
same,IC50,"HUVEC; Homo sapiens, HUVEC, read-out: IC50 in combination with DI-17E6, HUVEC, combination with DI-17E6",0.1 ng/mL
same,additive effect with Cilengitide,HUVEC,yes
same,additive effect with DI-17E6,HUVEC,yes
same,additive effect with Mab 17E6,HUVEC,yes
Nc1ccn([C@@H]2O[C@H](CO)[C@@H](O)C2(F)F)c(=O)n1 [Gemcitabine],IC50,HUVEC; [11],0.004 µM
same,additive effect with Cilengitide,HUVEC,yes
same,additive effect with DI-17E6,HUVEC,yes
same,additive effect with Mab 17E6,HUVEC,yes
same,"tumor size and weight, monotherapy",NP18-b3 pancreatic tumor,not active
COc1cccc2c1C(=O)c1c(O)c3c(c(O)c1C2=O)C[C@@](O)(C(=O)CO)C[C@@H]3O[C@H]1C[C@H](N)[C@H](O)[C@H](C)O1 [Doxorubicin],IC50,HUVEC; [11],0.2 µM
same,additive effect with Cilengitide,HUVEC,yes
same,additive effect with DI-17E6,HUVEC,yes
same,additive effect with Mab 17E6,HUVEC,yes
N.N.[Cl][Pt][Cl] [Cisplatinin],IC50,HUVEC; [12],13.2 µM
same,additive effect with Cilengitide,HUVEC,yes
same,additive effect with DI-17E6,HUVEC,yes
same,additive effect with Mab 17E6,HUVEC,yes
N[C@@H](Cc1ccc(N(CCCl)CCCl)cc1)C(=O)O [Melphalan],IC50,"HUVEC; Homo sapiens, HUVEC, 72 h",11.4 µM
same,additive effect with Cilengitide,HUVEC,yes
same,additive effect with DI-17E6,HUVEC,yes
same,additive effect with Mab 17E6,HUVEC,yes
O=c1[nH]cc(F)c(=O)[nH]1 [5FU],IC50,HUVEC; [12],14.5 µM
same,additive effect with Cilengitide,HUVEC,yes
same,additive effect with DI-17E6,HUVEC,yes
same,additive effect with Mab 17E6,HUVEC,yes
Cn1nnc2c(C(N)=O)ncn2c1=O [Temozolmide],IC50 (in words),HUVEC; [12],inactive
same,additive effect with Cilengitide,HUVEC,no
same,additive effect with DI-17E6,HUVEC,no
same,additive effect with Mab 17E6,HUVEC,no
